Experimental data from patent publication US11318118B1, “Methods and compositions for treating SARS-CoV-2 infection using carboxyamidotriazole orotate” (TACTICAL THERAPEUTICS INC., priority 2021, dated 2022).
Where two headings read alike, the source gives them in different places.

Columns and labels:
[1] = tested on: plasma cytokines; assay: Luminex (Milliplex MAP Human Cytokine/Chemokine Magnetic Bead Panel) testing of plasma specimens from Phase I cancer patients given CTO; assay type: in vivo; set-up: key to VEGF plasma level / IL-15 plasma level / IL-17A plasma level / IL-1RA plasma level / IL-2 plasma level / IL-4 plasma level / IL-6 plasma level / IL-8 plasma level / IP-10 plasma level / MIP1a plasma level / RANTES plasma level / EGF plasma level / **IL-1β plasma level (second entry of the list) / **TNFα plasma level / GM-CSF plasma level / IFNγ plasma level / IL-1β plasma level (first entry of the list) / IL-12p40 plasma level / IL-12p70 plasma level / IL-13 plasma level: + increased; − decreased
Protocol: In a Phase I trial of CTO testing the safety and tolerability of CTO in cancer patients, Plasa samples were obtained from three patients after administration of different doses of CTO daily as follows: 1) NSCLC Patient 002-46 (CTO 555 mg/m2), 2) NSCLC Patient 002-50 (CTO 427 mg/m2) and 3) Ovarian Cancer Patient 002-53 (CTO 427 mg/m2) The levels of cytokines were measured by using the HCYTMAG-60K-PX30/Milliplex MAP Human Cytokine/Chemokine Magnetic Bead Panel from Milliplex, USA.
Table 1. Target Cytokines in Luminex Panel Testing of Plasma Specimens-Results
Expressed as Cytokine (+ increased) or (− decreased)

[2] = tested on: SARS-CoV-2 infection; assay type: in vivo; conditions: one patient, CTO 600 mg daily oral, on the second day
[3] = tested on: SARS-CoV-2; assay type: cell-based; conditions: Vero E6 cells
[4] = tested on: non-infected Vero E6 cells; conditions: read-out: EC 50 in non-infected Vero E6 cells; cell viability, Cell Titer Glo
[5] = CTO 427-555 mg/m2 daily, three cancer patients, versus baseline
[6] = CTO doses ranging from 427 mg/m2 to 555 mg/m2

For `NC(=O)c1nnn(Cc2cc(Cl)c(C(=O)c3ccc(Cl)cc3)c(Cl)c2)c1N.O=C(O)c1cc(=O)[nH]c(=O)[nH]1` [CTO], the “**IL-1β plasma level (second entry of the list)” value [1, 5] was “−”, the “**TNFα plasma level” value [1, 5] was “−” and the EGF plasma level [1, 5] was “+”. For the same molecule, the GM-CSF plasma level [1, 5] was “−”, the IFNα2 plasma level [1, 5] was “—I—” and the IFNγ plasma level [1, 5] was “−”. For the same molecule, the IL-1RA plasma level [1, 5] was “−”, the “IL-1β plasma level (first entry of the list)” value [1, 5] was “+” and the IL-2 plasma level [1, 5] was “−”. The IL-4 plasma level [1, 5] was “−”, the IL-6 plasma level [1, 5] was “−” and the IL-8 plasma level [1, 5] was “−”. For the same molecule, the IL-12p40 plasma level [1, 5] was “+”, the IL-12p70 plasma level [1, 5] was “−” and the IL-13 plasma level [1, 5] was “−”. For the same molecule, the IL-15 plasma level [1, 5] was “−”, the IL-17A plasma level [1, 5] was “−” and the IP-10 plasma level [1, 5] was “−”. The MIP1a plasma level [1, 5] was “−”, the RANTES plasma level [1, 5] was “+” and the VEGF plasma level [1, 5] was “−”. The “levels of cytokines including EGF, IFN α2, IL-1β, IL-12p40” value [1, 6] was “increase”, the “levels of several cytokines including VEGF, GM-CSF, INF-γ, IL-2, IL-12p70, IL-13, IL-15, IL-17a, IL-1RA, IL-1α, IL-2, ILl-4, IL-6, IL-8, il-10, MIP1-α. IL-1 TNF-α” value [1, 6] was “reduction” and the “symptoms of SARS-CoV-2 infection” value [2] was “great improvement in most of the symptoms”. For the same molecule, the body weight ([2]; had lost twelve pounds within 14 days before) was “remained at constant weight”, the IC50 ([3]; 72 hours post-inoculation, read-out: IC50, CPE assay (highest dose tested)) was > 20 µM and the “replication of SARS-CoV-2” value ([3]; CTO up to 5 μM) was “inhibited”. For the same molecule, the IC50 ([3]; FIG. 2, read-out: IC50, cytopathic effect (CPE) for SARS-CoV-2) was > 20 µM, the “Maximum % Inhibition, CPE for SARS-CoV-2” value ([3]; recorded <20 μM concentration) was 29.03% and the EC50 [4] was 14.9 µM.
